Measurements as given in patent US20110195930A1, “PYRIDINE DERIVATIVE OR ITS SALT, PESTICIDE CONTAINING IT AND PROCESS FOR ITS PRODUCTION” (Ishihara Sangyo Kaisha, Ltd., priority 2008, published 2011).

Experiments:
[1] = test system: Brown Planthopper (Nilaparvata lugens); experiment: Test on controlling effects against brown planthopper (rice seedling dip); format: in vivo; details: rice seedling dipped about 10 seconds, second-third instar nymphs, 5th day after the release, 25° C.
Description: Test on Controlling Effects Against Brown Planthopper (Nilaparvata lugens)
Rice seedling was dipped for about 10 seconds in an insecticidal solution adjusted to bring the concentration of the compound of the present invention to 200 ppm and then dried in air, its root was wrapped with a wet absorbent cotton, and the seedling was put into a test tube. Then, 10 second-third instar nymphs of Brown Planthopper were released therein, and the test tube was covered with a gauze and left in a constant temperature chamber at 25° C. with lightening. On the 5th day after the release, dead nymphs were counted, and the mortality was calculated by the following equation.
Mortality (%)=(number of dead insects/number of released insects)×100

[2] = test system: Green Peach Aphid (Myzus persicae); experiment: Test on controlling effects against green peach aphid (leaf dip); format: in vivo; details: foliar, 120 h, Japanese radish leaf dipped about 10 seconds, first instar nymphs, 5 days after the treatment, 25° C.
Description: Test on Controlling Effects Against Green Peach Aphid (Myzus persicae)
A Japanese radish leaf was inserted in a test tube in which water was put, and about 20 first instar nymphs of green peach aphid were released on the leaf. On the next day, the number of nymphs parasitic on the leaf was counted, and then the leaf was dipped for about 10 seconds in an insecticidal solution adjusted to bring the concentration of the compound of the present invention to 200 ppm, dried in air and left in a constant temperature chamber at 25° C. with lightening. Dead nymphs were counted 5 days after the treatment, and the mortality was calculated by the following equation. The insects dropped from the leaf or presented toxic symptom were counted as dead insects.
Mortality (%)=(1−(number of survived insects/number of treated insects))×100

Row | SMILES | mortality at 200 ppm [1] | mortality at 200 ppm [2]
1 | CCON=C(c1cccc(C)n1)n1cncn1 [compound 23] | ≥ 90% | 
2 | CCON=C(c1ccc(C(F)(F)F)cn1)n1cncn1 [compound 24] | ≥ 90% | 
3 | CCON=C(c1ncc(C(F)(F)F)cc1Br)n1cncn1 [compound 31] | ≥ 90% | ≥ 90%
4 | CCON=C(c1ncc(C(F)(F)F)cc1Cl)n1ccnc1 [compound 11] | ≥ 90% | ≥ 90%
5 | CCON=C(c1nc(C(F)(F)F)ccc1Cl)n1cncn1 [compound 84] | ≥ 90% | 
6 | FC(F)(F)c1cnc(C(=NOCC2CC2)n2cncn2)c(Cl)c1 [compound 32] | ≥ 90% | ≥ 90%
7 | CON=C(c1ncc(C(F)(F)F)cc1Cl)n1cncn1 [compound 14] | ≥ 90% | ≥ 90%
8 | CCON=C(c1cc(C(F)(F)F)ccn1)n1cncn1 [compound 26] | ≥ 90% | 
9 | CC(C)ON=C(c1ncc(C(F)(F)F)cc1Cl)n1cncn1 [Compound No. 13, [3-chloro-5-(trifluoromethyl)pyridin-2-yl](1H-1,2,4-triazol-1-yl)methanone O-isopropyl oxime] | ≥ 90% | 
10 | CCON=C(c1ncc(C(F)(F)F)cc1C)n1cncn1 [compound 33, [3-methyl-5-(trifluoromethyl)pyridin-2-yl](1H-1,2,4-triazol-1-yl)methanone O-ethyl oxime] | ≥ 90% | ≥ 90%
11 | CCON=C(c1cccc(C(F)(F)F)n1)n1cncn1 [compound 83] | ≥ 90% | 
12 | CCON=C(c1ncc(C(F)(F)F)cc1Cl)n1cncn1 [Compound No. 10, [3-chloro-5-(trifluoromethyl)pyridin-2-yl](1H-1,2,4-triazol-1-yl)methanone O-oxime] | ≥ 90% | ≥ 90%
13 | CCON=C(c1ncccc1C(F)(F)F)n1cncn1 [compound 25] | ≥ 90% | 
14 | CCON=C(c1ncc(C(F)(F)F)cc1Cl)n1cnnc1 [compound 12] | ≥ 90% | 
